# Patent publication US9936701B2, “Herbicidal compounds” (Syngenta Participations AG, priority 2013, dated 2018)
# Columns and labels:
# [1] = test system: a variety of test species; assay: Post-emergence herbicidal activity (glasshouse, sprayed after 8 days cultivation, evaluated after 13 days); assay type: in vivo; parameters: key: 5=total damage to plant; 0=no damage to plant; settings: rate 1000 g/Ha, scale 0-5
# Procedure, shortened: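 Visual herbicidal injury (0 = no damage, 5 = plant killed) recorded 13 days post-treatment. Treatment consisted of a single spray onto emerged seedlings at day 8; conditions before and after were 24/16 °C, 14 h light, 65% humidity.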
# [2] = test system: a variety of test species; assay: Pre-emergence herbicidal activity (glasshouse, sprayed one day after sowing, evaluated after 13 days); assay type: in vivo; parameters: key: 5=total damage to plant; 0=no damage to plant; settings: application pre-emergence, rate 1000 g/Ha, scale 0-5
# Procedure, shortened: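 Seeds sown in standard soil in pots, sprayed one day later (pre-emergence) with aqueous solution from acetone/water (50:50) formulation with 0.5% Tween 20. Glasshouse at 24/16 °C day/night, 14 h light, 65% humidity, watered twice daily. Damage scored after 13 days, 0 (none) to 5 (total).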
SMILES,"ABUTH (Abutilon theophrasti) damage score, application post-emergence [1]","ALOMY (Alopecurus myosuroides) damage score, application post-emergence [1]","AMARE (Amaranthus retroflexus) damage score, application post-emergence [1]","ECHCG (Echinochloa crus-galli) damage score, application post-emergence [1]","SETFA (Setaria faberi) damage score, application post-emergence [1]","ZEAMX (Zea mays) damage score, application post-emergence [1]","Pre-emergence herbicidal damage score, ABUTH [2]","Pre-emergence herbicidal damage score, ALOMY [2]","Pre-emergence herbicidal damage score, AMARE [2]","Pre-emergence herbicidal damage score, ECHCG [2]","Pre-emergence herbicidal damage score, SETFA [2]","Pre-emergence herbicidal damage score, ZEAMX [2]"
COc1ccccc1OC(=O)OC1C(C)=C(Cl)C(=O)N1c1cc(C(C)(C)C)on1 (centres unmarked) [A87],2,2,4,3,2,0,2,2,3,1,1,0
CC1=C(Cl)C(=O)N(c2cc(C(C)(C)C)on2)C1OC(=O)OCC(C)(C)C (centres unmarked) [A88],5,5,5,5,5,5,5,4,5,5,5,3
CC1=C(Cl)C(=O)N(c2cc(C(C)(C)C)on2)C1OC(=O)c1ccc(C(F)(F)F)nc1 (centres unmarked) [A90],4,4,5,2,3,1,4,2,5,1,2,1
CC1=C(Cl)C(=O)N(c2cc(C(C)(C)C)on2)C1OC(=O)c1sccc1Cl (centres unmarked) [A91],2,2,5,1,1,0,1,2,4,0,0,0
CC1=C(Cl)C(=O)N(c2cc(C(C)(C)C)on2)C1OC(=O)c1ccno1 (centres unmarked) [A92],5,5,5,5,5,1,5,4,5,5,4,3
CCC(=O)OC1C(C)=C(Cl)C(=O)N1c1cc(C(C)(C)C)on1 (centres unmarked) [A93],5,5,5,5,5,4,5,4,5,4,5,3
CCOC(=O)OC1C(C)=C(Cl)C(=O)N1c1noc(C(C)(C)C)c1C#N (centres unmarked) [A96],5,5,5,5,5,5,5,4,5,5,5,3
"CC1=C(Cl)C(=O)N(c2noc(C(C)(C)C)c2C#N)C1Cl (centres unmarked) [A97, 5-tert-butyl-3-(2A-dichloro-3-methyl-5-oxo-2H-pyrrol-1-yl)isoxazole-4-carbonitrile]",5,5,5,5,5,3,5,4,5,4,5,3
CC1=C(Cl)C(=O)N(c2noc(C(C)(C)C)c2C#N)C1OS(C)(=O)=O (centres unmarked) [A98],5,5,5,5,5,4,5,3,5,5,5,3
CCC(=O)OC1C(C)=C(Cl)C(=O)N1c1cc(C(C)(CC)CC#N)on1 (centres unmarked) [A99],5,5,5,5,5,5,5,4,5,5,5,3
CC1=C(Cl)C(=O)N(c2noc(C(C)(C)C)c2C#N)C1 [A102],5,5,5,5,5,4,5,4,5,4,5,3
COC1=C(Cl)C(=O)N(c2cc(C(C)(C)C)on2)C1O (centres unmarked) [B1],5,5,5,5,5,5,5,4,5,5,3,4
CNC1=C(Cl)C(=O)N(c2cc(C(C)(C)C)on2)C1O (centres unmarked) [C1],5,4,5,5,4,1,3,2,5,4,4,1
CN(C)C1=C(Cl)C(=O)N(c2cc(C(C)(C)C)on2)C1O (centres unmarked) [C2],5,4,5,5,4,3,1,1,–,2,1,1
